According to patent US20260345584A1, “METHODS AND PHARMACEUTICAL COMPOSITIONS FOR TREATING CHEMOTHERAPY-INDUCED PERIPHERAL NEUROPATHY WITH EG5 INHIBITORS” (UNIVERSITY OF MIAMI, priority 2023, published 2026):

Key:
[1] = tested on: HyPer oxidation in keratinocytes; experiment: Compartmentalized HyPer oxidation (nucleus, plasma membrane) in keratinocytes; format: in vivo, zebrafish; conditions: paclitaxel, alone or with EMD534085; for nuclear HyPer oxidation: nucleus
Experimental: HyPer fluorescence was measured in the oxidized (505 nm) and unoxidized (420 nm) channels by using the region of interest (ROI) function in ZEN Black (Zeiss) whereby ROIs were selected inside highly magnified mitochondria (HyPer-mito), cytoplasm (HyPer-cyto) or the plasma membrane (HyPer-CAAX). The data was exported, and ratios determined in Excel. H2O2 measurements in zebrafish transiently injected with tp63:Hyper were manually performed by placing spot objects in Imaris 9.5.1 onto individual cells such that the spots extended to the lateral edges. Fluorescence intensities were measured inside the spots and 505 nm/420 nm ratios were subsequently calculated.
These findings supported a role for Eg5 in nuclear X-ROS production as a result of microtubule fasciculation and increased mechanical tension.

[2] = tested on: caudal fin keratinocytes (mitosis); experiment: Keratinocyte mitosis, 12 hr time-lapse imaging of h2a:h2a-GFP fish; format: in vivo, zebrafish
Experimental: (§1) Fish were anesthetized in 2-phenoxyethanol (1:1000) in Ringer's solution prior to imaging and mounted in 1.2% agarose. EB3-GFP and Tau-Bfp2 were imaged with a scan speed kept at the maximum level in single slice mode with […] for a total of 60s to capture microtubule dynamics. h2a:H2A-GFP time-lapse recordings were produced (Zeiss LSM880 AiryScan confocal microscope) with 1 μm sections recorded every 10 min for 12 hr using 800×800 pixels. All other live fish were imaged using 1024×1024 pixels.
(§2) Cell divisions and cell death were manually counted in 12 hr movie recordings. The caudal fin was divided into 6 quadrants and individual cells in each quadrant were manually followed over 12 hr at least 3 times sequentially to capture cell divisions and dying cell behaviors.
To examine the effects of EMD534085 on mitosis, cell divisions in keratinocytes expressing nuclear h2a-h2a:GFP were quantified using 12 hr time-lapse imaging. […] The few divisions present were mostly restricted to the distal notochord region, with an average of 0.96±0.20/12 hr divisions at 3dpf and 1.16±0.44/12 hr at 6dpf in this region (shown in FIG. 6A).

[3] = tested on: caudal fin keratinocytes (cell death); experiment: Keratinocyte cell death, 12 hr time-lapse imaging; format: in vivo, zebrafish
Experimental: as §1, §2

[4] = tested on: caudal fin keratinocytes (dfMTs); experiment: dfMT formation (detyrosinated fasciculated looped microtubules) in zebrafish caudal fin keratinocytes; format: in vivo
Experimental: The stock solution was divided into 20-30 μl aliquots and stored at −20 °C until use (maximal 6 months). Immediately prior to use, paclitaxel was diluted in Ringer's solution and added to dechorionated larval zebrafish. The larval fish were placed individually or in small groups into wells of a 12-well plate containing the treatment solutions. The control group was 0.05% DMSO. Plates were incubated at 28.5 °C and protected from light. Treatment lengths are indicated in the Drawings, Description of the Drawings, and Examples where appropriate. […] EMD534085, Eg5 inhibitor (MedChemExpress, Cat. No. HY-15000) was diluted in 100% DMSO to make a 10 mM stock solution and stored at −20 °C. […] The solutions were exchanged every 48 hr.
Larval fish were transferred into […] glass vials and fixed in 4% paraformaldehyde (PFA)/1× Phosphate-buffered saline (PBS) for 1.5 hr at room temperature, with gentle rocking. Following a 5-minute incubation in 1×PBS+0.1% Tween-20 (PBST), zebrafish were permeabilized in 1×PBS+0.1% Triton X-100 for 10-30 min. Larval fish were transferred into 2 ml reaction tubes and incubated in blocking buffer (1×PBST+5% BSA) for 30 min at room temperature, with rocking. Larval fish were further incubated overnight in antibody solution (Millipore Sigma, Cat. No. AB3201, 1:300 rabbit anti-GluTub; Sigma, Cat No. T6793, 1:500 mouse anti-acetylated tubulin) in blocking buffer at 4 °C, on a rotator. The next morning, larval fish were transferred into 6-well plates and washed 4×15 min in 1×PBST at room temperature, with rocking. This was followed by incubation in secondary antibody (goat anti-rabbit Cy5, Abcam, Cat. No. ab97077; goat anti-mouse Cy3, Abcam, Cat. No. ab97035) and 1:10,000 Hoechst 33342 (ThermoFisher Scientific, Cat. No. 62249, 20 mM solution) in blocking buffer for 1 hr at room temperature, with rocking. Fish were covered to avoid bleaching. Fish were washed for 4×15 min in 1×PBST at room temperature, with rocking, and immediately mounted for imaging on glass bottom petri dishes (Spectrum Laboratory Products, Cat. No. 750-10403-UE) using 1% agarose (Thermo Fisher Scientific, Cat. No. 16520050). A 1:200 dilution was used for mouse alpha-tubulin antibody (Proteintech, Cat. No. 66031-1) and a 1:1,000 dilution of donkey anti-mouse IgG Alexa488 (ThermoFisher Scientific, Cat. No. A-21202) for secondary detection. For Nox1 immunostaining, a 1:300 dilution of primary antibody (Anti-NOX1 Rabbit Polyclonal Antibody, Avantar, Cat. No. 102164-796) and a 1:1,000 dilution of secondary goat anti-rabbit Cy2 (Abcam, Cat. No. ab6940) antibody was used. Eg5 antibody (Abcam, Cat. No. 61199) was used at a 1:100 and secondary goat anti-rabbit Cy2 (Abcam, Cat. No. ab6940) at 1:1,000 dilution.
CRISPR oligos targeting kif11 were designed using the IDT CRISPR design tool (https://www.idtdna.com/site/order/designtool/index/CRISPR_CUSTOM). The oligo (5′-[…] (SEQ ID NO: 21) was designed to anneal within exon 5 of 23 exons total in zebrafish kif11 with expected mutations ~ position 270 bp in the sequenced region using the following primers for PCR amplification: Fwd 5′-[…]-3′ (SEQ ID NO: 22) and Rev 5′-[…]-3′ (SEQ ID NO: 23). The forward primer was used for sequencing and yielded deletions in transiently injected embryos, as shown in example below in which single zebrafish were sequenced (FIG. 10).
The CRISPR oligo was injected using the Alt-R system (IDT, https://www.idtdna.com/pages/technology/crispr/crispr-genome-editing/Alt-R-systems/cas9), which has provided highly reliable and efficient zebrafish knockout results as used herein. The IDT-recommended protocol (below) was used for CRISPR oligo preparations. Fertilized eggs were injected ~15 minutes post fertilization with CRISPR oligos to ensure maximal efficiency.
Cell counting in the caudal fin was performed in three 100 μm^2 boxes in the dorsal, medial and ventral caudal fin (~100 μm from the edge). […]

[5] = 22 μM paclitaxel, alone or with EMD534085, 96 hr

Row | Compound | nuclear HyPer oxidation [1] | plasma membrane HyPer oxidation [1] | mitotic divisions per animal ([2]; EMD534085 alone, 96 hr) | cell death ([3]; EMD534085 alone, 96 hr) [dying cells/caudal fin] | animals with dfMTs ([4]; 25 μM EMD534085 alone) [%] | number of dfMT-harboring keratinocytes per animal ([4]; EMD534085 alone, 96 hr) [cells/animal] | mitotic divisions per animal ([2]; 100 nM paclitaxel, 96 hr) | mitotic divisions per animal [2, 5] | cell death ([3]; 100 nM paclitaxel, alone or with EMD534085, 96 hr) [dying cells/caudal fin] | cell death [3, 5] [dying cells/caudal fin] | dfMT-positive keratinocytes ([4]; 100 nM paclitaxel) | animals with dfMTs ([4]; 100 nM paclitaxel, alone or with 25 μM EMD534085) [%] | number of dfMT-harboring keratinocytes per animal ([4]; 100 nM paclitaxel, alone or with 25 μM EMD534085, 96 hr) [cells/animal] | animals with dfMT ([4]; 22 μM paclitaxel, 48 hr) | keratinocytes with dfMTs ([4]; 22 μM paclitaxel, 48 hr) [keratinocytes/100 μm^2] | keratinocytes with dfMTs ([4]; 22 μM paclitaxel, 96 hr) [keratinocytes/100 μm^2] | animals with dfMT ([4]; 22 μM paclitaxel, 96 hr (FIG. 1I)) | animals with dfMTs ([4]; 22 μM paclitaxel, alone or with 25 μM EMD534085) [%] | number of dfMT-harboring keratinocytes per animal ([4]; 22 μM paclitaxel, alone or with 25 μM EMD534085, 96 hr) [cells/animal] | dfMT presence ([4]; 3 hr paclitaxel)
1 | CN(C)CCNC(=O)NC[C@H]1CC[C@@H]2[C@H](O1)c1cc(C(F)(F)F)ccc1N[C@H]2c1ccccc1 [EMD534085] | Nuclear HyPer oxidation was reduced upon co-administration of EMD534085 | without effects on plasma membrane oxidation | 1.27±0.46 /12 hr | 0.81±0.26 | 0 | 0±0 |  |  |  |  |  |  |  |  |  |  |  |  |  | 
2 | CC(=O)O[C@H]1C(=O)[C@@]2(C)[C@H]([C@H](OC(=O)c3ccccc3)[C@]3(O)C[C@H](OC(=O)[C@H](O)[C@@H](NC(=O)c4ccccc4)c4ccccc4)C(C)=C1C3(C)C)[C@]1(OC(C)=O)CO[C@@H]1C[C@@H]2O [paclitaxel] | increased oxidation within the nucleus | not at the plasma membrane |  |  |  |  | 0.72±0.423 | 1.4±0.67 | 0.18±0.18 | 0.6±0.3 | 0.4±0.21 dfMT-positive keratinocytes/100 μm^2 | 20 | 0.4±0.21 | ~ 45% | 3.64±1.28 | 7.7±1.6 | ~ 90% | 65.22 | 6.957±1.49 | never
